According to patent publication US20050282893A1 (priority 2004, published 2005):
Values joined by “and” are separate entries in the source; they are usually repeats but may differ in a detail not shown here. Identical values can stand only once. Like-named read-outs stand apart in the source and are kept apart here. Marks after values point to notes of the source that are not given here.

What was measured:
[1] = tested on: FaDu cells; experiment: Paclitaxel cytotoxicity (SRB method) in hTR antisense-transfected FaDu cells; assay type: cell-based; settings: Homo sapiens, paclitaxel 96 hours
Procedure: Effect of hTR antisense on the cytotoxic effect of […]. Two clones of cells that were stably transfected with the hTR antisense were studied. The cytotoxic effect of paclitaxel was quantified using the SRB method, which measures the total cellular proteins. The cells transfected with hTR antisense were treated with IPTG for 44 (clone#1) to 57 (clone #2) days, and then with paclitaxel for 96 hours.

[2] = tested on: human pharynx FaDu xenografts
Procedure: Xenografts were formed by subcutaneous injection of 106 viable tumor cells in 0.1 ml physiologic saline in the right and left flank areas, and were allowed to grow for about 14 days to reach a size of >15 mm^3 before drug treatment was started. […] The saline control group received injections of 200 μl/day of physiological saline for five consecutive days. The paclitaxel group received injections of 10 mg/kg/day paclitaxel dissolved in Cremophor and ethanol (i.e., Taxol) in a volume of 200 μl for five consecutive days. […] Animal weights and tumor sizes were measured on days 1, 3, 6, 8, and 10 after initiation of the paclitaxel treatment.
The antitumor effect of the drug treatments was measured in three ways. The first was the reduction in tumor size. Tumor sizes were determined by first preparing a mold of the extruding tumor using Jeltrate, a rapidly setting molding material, and then preparing and weighing the countermold. Second, the apoptotic effect was measured. The animals were euthanized on day 10, and the tumors were harvested and fixed in formalin. Histologic sections of 5-micron thickness were prepared and stained with hematoxylin and eosin. The tumor sections were evaluated morphologically for tumor cell density, and density of apoptotic cells. Because apoptotic cells disappear over time, the density of non-apoptotic cells is a secondary indicator of apoptosis. Cell densities were determined by counting the number of cells in four randomly selected microscopic fields at 400× magnification, using image analysis procedures (Song, et al., Proc. Natl. Acad. Sci. USA, 97:8658-8663, 2000). Third, the ability of drug treatment to prolong the survival time was measured. For this study, the animals were monitored for 100 days, or until moribundity, defined by a tumor length exceeding 1.0 cm, was reached.

[3] = tested on: stage IIIB/IV nonsmall cell lung cancer; settings: 290 patients; cited from earlier work
[4] = fifteenth day of oral treatment, about 400 mg per meter squared per day; cited from earlier work
[5] = tested on: renal cell carcinoma cells (RCC45 and RCC54); experiment: PPS single agent cytotoxicity, BrdU incorporation, renal cell carcinoma cells; assay type: cell-based
[6] = target: T1, telomerase (Homo sapiens, UniProt O14746); experiment: Telomerase activity after PPS exposure, modified quantitative TRAP assay; assay type: cell-based
Procedure: (§1) Inhibition of telomerase activity in cell lysates and intact cells. The modified Telomeric Repeat Amplification Protocol (TRAP) assay (Gan, et al., Pharm. Res., 18:488-493, 2001) was used to detect telomerase activity in cell lysate. The telomerase activity in intact cells was measured using intracellular TRAP, as follows. Cells (1×10^5) were washed twice with PBS and centrifuged. The cell pellet was resuspended in 100 μl of serum-free RPMI 1640 containing 5 u/ml of Streptolysin O, 2 μM of TS primer, and 50 μM of dNTP, and incubated at room temperature for 5 min. The enzyme streptolysin O was used to increase the cell membrane permeability to the TS primer. Upon entering a cell, the TS primer was elongated by the intracellular telomerase in situ. The elongated TS primer was then isolated from the cells and used as the template for PCR amplification. Then 200 μl of RPMI 1640 medium containing 10% FBS was added to the cells to stop the permeating process. The mixture was incubated at 30° C. for 30 min to allow the extension of intracellular TS primer by telomerase. The cells were then lyzed and the cell lysates, which contained the already extended TS primer, was directly analyzed by TRAP.
Treatment Protocol. Treatment with PPS was initiated after cells were allowed to attach to the growth surface in culture flasks. On the day of experiments, the culture medium was removed and replaced with inhibitor-containing medium. Drug concentrations of 0, 0.1, 1, 10, 100, 1000 μg/ml of PPS were employed. Telomerase activity was measured by the modified quantitative TRAP assay.
Target sequence in this assay (O14746 whole entry): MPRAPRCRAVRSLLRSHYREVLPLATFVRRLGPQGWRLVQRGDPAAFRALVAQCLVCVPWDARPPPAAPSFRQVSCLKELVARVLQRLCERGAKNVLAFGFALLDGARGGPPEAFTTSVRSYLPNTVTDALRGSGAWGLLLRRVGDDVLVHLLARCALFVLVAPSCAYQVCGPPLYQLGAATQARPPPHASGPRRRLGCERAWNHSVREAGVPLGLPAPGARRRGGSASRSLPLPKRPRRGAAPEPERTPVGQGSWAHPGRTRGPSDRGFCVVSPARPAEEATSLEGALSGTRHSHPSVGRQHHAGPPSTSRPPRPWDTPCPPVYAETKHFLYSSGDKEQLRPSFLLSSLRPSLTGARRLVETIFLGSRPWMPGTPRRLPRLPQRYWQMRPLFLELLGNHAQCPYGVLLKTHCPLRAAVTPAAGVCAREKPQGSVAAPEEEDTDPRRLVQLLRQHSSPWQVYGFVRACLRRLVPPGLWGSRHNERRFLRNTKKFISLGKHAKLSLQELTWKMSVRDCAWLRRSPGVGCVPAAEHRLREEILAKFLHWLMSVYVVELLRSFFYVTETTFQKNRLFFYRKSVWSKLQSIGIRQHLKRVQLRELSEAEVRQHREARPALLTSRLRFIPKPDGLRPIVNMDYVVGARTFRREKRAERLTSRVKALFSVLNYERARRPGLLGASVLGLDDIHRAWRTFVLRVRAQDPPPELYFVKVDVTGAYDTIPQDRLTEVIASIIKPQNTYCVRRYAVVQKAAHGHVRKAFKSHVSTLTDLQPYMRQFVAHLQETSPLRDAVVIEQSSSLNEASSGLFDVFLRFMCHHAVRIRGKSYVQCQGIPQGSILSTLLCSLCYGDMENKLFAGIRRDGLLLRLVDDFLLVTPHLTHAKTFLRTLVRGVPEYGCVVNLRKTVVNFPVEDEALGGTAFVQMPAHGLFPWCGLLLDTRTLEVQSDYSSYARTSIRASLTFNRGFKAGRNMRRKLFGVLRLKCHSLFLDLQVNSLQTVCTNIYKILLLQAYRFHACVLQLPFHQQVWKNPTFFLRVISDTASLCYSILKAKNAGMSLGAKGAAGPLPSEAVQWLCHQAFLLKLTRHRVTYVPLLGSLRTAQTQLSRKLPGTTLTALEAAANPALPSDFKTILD
Target sequence in this assay (O60832 whole entry partner): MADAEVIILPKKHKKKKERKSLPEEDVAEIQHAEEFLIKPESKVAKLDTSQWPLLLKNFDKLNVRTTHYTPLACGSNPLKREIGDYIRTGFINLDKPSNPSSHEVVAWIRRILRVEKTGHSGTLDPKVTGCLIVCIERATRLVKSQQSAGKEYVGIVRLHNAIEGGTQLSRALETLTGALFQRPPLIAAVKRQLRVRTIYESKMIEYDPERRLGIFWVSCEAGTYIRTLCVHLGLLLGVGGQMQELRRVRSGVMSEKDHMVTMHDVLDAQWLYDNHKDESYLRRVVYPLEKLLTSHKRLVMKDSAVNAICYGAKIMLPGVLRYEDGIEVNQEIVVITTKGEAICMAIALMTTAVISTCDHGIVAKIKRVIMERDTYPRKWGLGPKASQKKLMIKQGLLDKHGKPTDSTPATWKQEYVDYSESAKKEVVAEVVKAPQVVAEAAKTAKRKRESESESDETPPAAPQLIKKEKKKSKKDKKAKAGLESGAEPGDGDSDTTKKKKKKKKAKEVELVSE
Target sequence in this assay (Q9NPE3 whole entry partner): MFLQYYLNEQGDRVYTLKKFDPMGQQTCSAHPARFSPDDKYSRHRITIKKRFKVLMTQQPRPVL
Target sequence in this assay (Q9NX24 whole entry partner): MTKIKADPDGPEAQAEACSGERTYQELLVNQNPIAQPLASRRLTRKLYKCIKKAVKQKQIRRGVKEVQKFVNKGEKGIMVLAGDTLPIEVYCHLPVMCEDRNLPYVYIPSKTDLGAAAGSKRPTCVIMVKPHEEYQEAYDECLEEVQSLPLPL
Target sequence in this assay (Q9NY12 whole entry partner): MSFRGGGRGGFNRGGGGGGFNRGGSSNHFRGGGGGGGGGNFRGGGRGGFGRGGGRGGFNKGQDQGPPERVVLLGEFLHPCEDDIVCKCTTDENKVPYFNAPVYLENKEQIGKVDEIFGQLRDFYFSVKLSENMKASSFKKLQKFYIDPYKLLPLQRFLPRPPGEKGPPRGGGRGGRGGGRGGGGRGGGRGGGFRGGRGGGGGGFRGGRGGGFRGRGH

[7] = tested on: anticoagulation; settings: cited from earlier work
[8] = tested on: telomere length in FaDu and PC3 cells; experiment: Telomere length in cultured cells after prolonged treatment (TALA / FISH); assay type: cell-based, human; settings: prolonged treatment (7-15 weeks)
Text: Measurement of telomere length in cultured cells. Two methods were used to measure telomere length. The first method was a solution hybridization based telomere amount and length assay (TALA) (Gan, et al., Pharm. Res., 18:1655-1659, 2001) that measures the mean length of the terminal restriction fragments (TRF). The second method was fluorescence in situ hybridization (FISH) to detect telomere signal and to estimate the approximate length of individual telomere structures at the end of chromosomes. The FISH method is as described in U.S. patent application Ser. No. 09/587,662 and Gan, et al., 2001.
Treatment Protocol. Treatment with suramin or AZT was initiated after cells were allowed to attach to the growth surface in culture flasks. On the day of experiments, the culture medium was removed and replaced with inhibitor-containing medium.

[9] = in vivo; settings: BALB/c nu/nu, mouse, plasma, intravenous, 10 mg/kg
[10] = Suramin plasma pharmacokinetics in beagle dogs; assay type: in vivo; settings: 6.75 mg/kg iv infusion over 30 minutes
Text: Treatment protocol. […] The animals were cannulated in the cephalic veins of both front legs.

[11] = tested on: FaDu tumors; experiment: Low-dose suramin, tumor size in mice implanted with FaDu tumors; assay type: in vivo; settings: one of six animals; suramin 10 mg/kg ip twice-weekly for 6 weeks
Procedure: Treatment Protocol. Immunosuppressed mice were injected subcutaneously in the thigh area with 5×10^5 FaDu cells. […] Tumor sizes were observed twice-weekly.

[12] = Intravesical suramin in dogs: bladder contents, bladder wall and plasma concentrations; assay type: in vivo; settings: for concentration at 120 min: beagle, dog, bladder wall tissue, other: intravesical, 6 mg/ml
Procedure: Treatment protocol Five beagle dogs, weighing 9.0±0.4 kg, were used. The animals were cannulated in a cephalic vein for administration of anesthetics, and in a jugular vein for blood sampling. A urethral catheter was inserted for dose instillation and sampling of the bladder contents. […] Concentrations of the bladder contents and systemic plasma were sampled at frequent intervals for 120 minutes, at which time the bladder tissue was harvested and the animal sacrificed. Tissue sections of approximately 2 cm×2 cm surface area were cut from the bladder wall, and rapidly frozen on a flat stainless steel plate cooled on dry ice. The outer edges of the tissue samples were trimmed to avoid contamination with instillation fluid, and the frozen tissues cut into 40 μm sections parallel to the urothelial surface.

[13] = tested on: FaDu tumor; experiment: Telomere length by FISH in FaDu tumors implanted in mice; assay type: in vivo
Procedure: Treatment protocol. FaDu cells (0.5˜1×10^6 cells in a volume of 100 μl) were implanted subcutaneously in male BALB/c nu/nu mice. […] The first dose was administered immediately after tumor implantation, with repeat doses given twice a week thereafter. […] Frozen tissue sections were analyzed for telomere length in individual cells using fluorescent in situ hybridization. About 10 microscope fields at 400-fold magnification were randomly chosen for each section, and the percentage of tumor cells with attenuated or lost telomere signals were counted.

[14] = target: T1, telomerase; experiment: Modified TRAP assay, telomerase activity in cell lysate (cell extract); assay type: biochemical; settings: mean ± SD, read-out: IC50, inhibition of telomerase activity
Procedure: as §1
Target sequence in this assay (O14746 whole entry): as the sequence (O14746 whole entry) above
Target sequence in this assay (O60832 whole entry partner): as the sequence (O60832 whole entry partner) above
Target sequence in this assay (Q9NPE3 whole entry partner): as the sequence (Q9NPE3 whole entry partner) above
Target sequence in this assay (Q9NX24 whole entry partner): as the sequence (Q9NX24 whole entry partner) above
Target sequence in this assay (Q9NY12 whole entry partner): as the sequence (Q9NY12 whole entry partner) above
Treatment Protocol. Treatment with suramin or AZT was initiated after cells were allowed to attach to the growth surface in culture flasks. […]

[15] = target: T1, telomerase; experiment: Telomerase IC50 determination, general method; assay type: biochemical; settings: read-out: IC50 against telomerase
Text: One method used to identify compounds of the invention that inhibit telomerase activity involves placing cells, tissues, or preferably a cellular extract or other preparation containing telomerase, in contact with several known concentrations of a test compound in a buffer compatible with telomerase activity. […] Other methods for determining the inhibitory concentration of a compound of the invention against telomerase can be employed as will be apparent to those of skill in the art based on the disclosure herein.
Target sequence in this assay (O14746 whole entry): as the sequence (O14746 whole entry) above

[16] = target: T1, telomerase; experiment: Intracellular TRAP, telomerase activity in intact cells; assay type: cell-based; settings: mean ± SD, read-out: IC50, inhibition of telomerase activity
Target sequence in this assay (O14746 whole entry): as above
Target sequence in this assay (O60832 whole entry partner): as the sequence (O60832 whole entry partner) above
Target sequence in this assay (Q9NPE3 whole entry partner): as the sequence (Q9NPE3 whole entry partner) above
Target sequence in this assay (Q9NX24 whole entry partner): as the sequence (Q9NX24 whole entry partner) above
Target sequence in this assay (Q9NY12 whole entry partner): as the sequence (Q9NY12 whole entry partner) above

[17] = human patients; cited from earlier work
[18] = tested on: RCC54; experiment: 5-Fluorouracil inhibition of BrdU incorporation (ELISA), RCC54; assay type: cell-based
Procedure: (§2) A study was performed using two renal cell carcinoma cells (RCC45 and RCC54). 5-Fluorouracil was used as the chemotherapeutic agent. Cells were treated with 5-fluorouracil for 96 hours, with and without PPS. The drug effect was measured as inhibition of the incorporation of a DNA precursor (bromodeoxyuridine or BrdU) using ELISA.

[19] = tested on: RCC45; experiment: 5-Fluorouracil inhibition of BrdU incorporation (ELISA), RCC45; assay type: cell-based
Procedure: as §2

Molecule: CC(=O)O[C@H]1C(=O)[C@@]2(C)[C@H]([C@H](OC(=O)c3ccccc3)[C@]3(O)C[C@H](OC(=O)[C@H](O)[C@@H](NC(=O)c4ccccc4)c4ccccc4)C(C)=C1C3(C)C)[C@]1(OC(C)=O)CO[C@@H]1C[C@@H]2O [paclitaxel]
- IC50 ([1]; 96 h, +IPTG cells, read-out: IC50 of paclitaxel, clone #1): 0.00242 µM
- IC50 ([1]; 96 h, +IPTG cells, read-out: IC50 of paclitaxel, clone #2): 0.00253 µM
- IC50 ([1]; 96 h, +antisense cells (no IPTG), read-out: IC50 of paclitaxel, clone #1): 0.00246 µM
- IC50 ([1]; 96 h, +antisense cells (no IPTG), read-out: IC50 of paclitaxel, clone #2): 0.00287 µM
- IC50 ([1]; 96 h, +sense +IPTG cells, read-out: IC50 of paclitaxel, clone #1): 0.00256 µM
- IC50 ([1]; 96 h, +sense +IPTG cells, read-out: IC50 of paclitaxel, clone #2): 0.00221 µM
- IC50 ([1]; 96 h, Control cells, read-out: IC50 of paclitaxel, clone #1): 0.00204 µM
- IC50 ([1]; 96 h, Control cells, read-out: IC50 of paclitaxel, clone #2): 0.00205 µM
- IC50 ([1]; +antisense +IPTG cells (IPTG 44 days), read-out: IC50 of paclitaxel, clone #1): 0.0013 µM
- IC50 ([1]; +antisense +IPTG cells (IPTG 57 days), read-out: IC50 of paclitaxel, clone #2): 0.00133 µM
- median time to reach moribundity ([2]; Kaplan Meier analysis, monitored for 100 days): 42 days
- % Apoptotic cells per tumor ([2]; day 10 tumors, Mean ± SD): 30 ± 17%^a
- Number of apoptotic cells per 400x field ([2]; day 10 tumors, Mean ± SD): 66 ± 34^a
- Number of nonapoptotic cells per 400x field ([2]; day 10 tumors, Mean ± SD): 168 ± 53^a
- End-of-experiment body weight, % of pretreatment value ([2]; mouse, in vivo): 97 ± 6^a % of pretreatment value
- body weight loss compared to the pretreatment weight ([2]; mouse, in vivo): < 3%
- tumor-free survivors ([2]; of 12 animals): did not show tumor-free survivors
- toxicity-related death ([2]; single agents): no toxicity-related death

Molecule: paclitaxel/carboplatin
- MST [3]: 8.1 months
- TTP [3]: 3.1 months
- complete response [3]: < 1%
- overall response rate [3]: about 17%

Molecule: pentosan polysulfate [PPS]
- plasma concentrations [4]: 200 to 460 ng/mL
- IC50 of PPS as a single agent ([5]; 96 hours, BrdU incorporation): ~1,400 μg/ml
- cytotoxicity of PPS ([5]; at 10 and 100 μg/ml): no cytotoxicity
- concentration resulting in 50% inhibition of telomerase activity ([6]; FaDu cells): 0.56 µg/mL
- concentration resulting in 50% inhibition of telomerase activity ([6]; SKOV-3 cells): 0.60 µg/mL
- concentrations resulting in 80% inhibition of telomerase activity ([6]; both cells (FaDu and SKOV-3)): less than 10 μg/ml
- concentrations resulting in 90% inhibition of telomerase activity ([6]; both cells (FaDu and SKOV-3)): less than 100 μg/ml
- concentrations required for 50% inhibition of telomerase activity ([6]; summary of Example 3): 0.5 to 0.6 µg/mL
- concentrations at which anticoagulation is found [7]: above 1 μg/ml

Molecule: Cc1ccc(C(=O)Nc2ccc(S(=O)(=O)O)c3cc(S(=O)(=O)O)cc(S(=O)(=O)O)c23)cc1NC(=O)c1cccc(NC(=O)Nc2cccc(C(=O)Nc3cc(C(=O)Nc4ccc(S(=O)(=O)O)c5cc(S(=O)(=O)O)cc(S(=O)(=O)O)c45)ccc3C)c2)c1 [Suramin, suramin]
- telomere shortening [8]: about 30%
- concentration at 72 h [9]: ~10 µM and ~14000 ng/mL
- terminal half-life ([10]; 6.75 mg/kg): 13 days
- half-life ([10]; beagle, dog, plasma, read-out: terminal half-life (converted)): 13 days
- clearance ([10]; beagle, dog, plasma, read-out: total clearance (converted)): 2.1 mL/h/kg
- tumor outcome [11]: completely disappeared
- suramin concentration in the bladder contents ([12]; 120 minutes after intravesical 6 mg/ml): 3.6 mg/mL
- plasma concentrations ([12]; at all times, intravesical 6 mg/ml): less than 0.1 μg/ml
- concentration at 120 min ([12]; at 0 mm (urethral surface), 120 minutes, read-out: bladder wall tissue concentration): ~80000 ng/g
- concentration at 120 min ([12]; at approximately 2 mm depth, read-out: bladder wall tissue concentration): ~3000 ng/g
- concentration at 120 min ([12]; remainder of the bladder wall, read-out: bladder wall tissue concentration): ~3000 ng/g
- concentration at 120 min ([12]; summary of Example 13, read-out: concentrations in the targeted tissues after local administration): 5000 to 100000 ng/g
- bodyweight increase compared with saline ([13]; 10 mg/kg iv twice a week): undistinguishable rates of bodyweight increases
- tumor establishment rate ([13]; 10 mg/kg iv twice a week from implantation): 100%
- fraction of cells with a reduced or eliminated telomere signal ([13]; first two weeks of treatment, 10 mg/kg iv twice a week): approximately 10%
- fraction of cells with a reduced or eliminated telomere signal ([13]; week 3, 10 mg/kg iv twice a week): approximately 40%
- fraction of cells with a reduced or eliminated telomere signal ([13]; week 4, 10 mg/kg iv twice a week): 75%
- fraction of cells with a reduced or eliminated telomere signal ([13]; week 5, 10 mg/kg iv twice a week): over 80%
- fraction of cells with a reduced or eliminated telomere signal ([13]; week 6, 10 mg/kg iv twice a week): 95%
- IC50 ([14]; MCF7, cell extract): 2.8 ± 1.5 µM
- IC50 ([14]; PC3, cell extract): 1.6 ± 0.7 µM
- IC50 [15]: < 10 µM
- IC50 ([16]; FaDu, intact cell): 1.7 ± 1 µM
- IC50 ([16]; MCF7, intact cell): 1.4 ± 1.1 µM
- IC50 ([16]; PC3, intact cell): 2.3 ± 0.9 µM
- half-life, first phase of triphasic plasma decline [17]: 0.229 days
- half-life, second phase of triphasic plasma decline [17]: 4.1 days
- half-life, third phase of triphasic plasma decline [17]: 78 days
- total body clearance [17]: 0.0095 liter/hour/m^2

Molecule: O=c1[nH]cc(F)c(=O)[nH]1 [5-fluorouracil]
- IC50 ([18]; RCC54, No PPS): 7.27 µM
- IC50 ([18]; RCC54, With 10 μg/ml PPS): 4.65 µM
- IC50 ([18]; RCC54, With 10 μg/ml PPS plus 30 μM suramin): 2.34 µM
- IC50 ([18]; RCC54, With 100 μg/ml PPS): 3.58 µM
- IC50 ([19]; RCC45, No PPS): 7.58 µM
- IC50 ([19]; RCC45, With 10 μg/ml PPS): 5.15 µM
